By kinetic solubility is commonly meant the concentration staying in solution when a stock, usually in DMSO, is diluted into the medium.

The results in this text go back to PubChem BioAssay AID1996.

Values after ≈ are worked out from the molar mass of the structure shown.

The conditions of the data set: buffer; pH 7.4; 200.0 µM.
In turn, `C=CCS(=O)(=O)N1CCCC(N(C)CCc2ccc(OC)c(OC)c2)C1` (centres undefined) returned a kinetic solubility of 44.4 µg/mL (≈ 116 µM).
Under `CC(=O)N/C(=C\c1ccc(Cl)cc1)C(=O)O` stands 34.7 µg/mL (≈ 145 µM); under `Cc1nc([N+](=O)[O-])cn1CC(=O)Nc1ccc(F)c(Cl)c1`, 1.2 µg/mL (≈ 3.84 µM).
Under `O=C1CSC(c2cccnc2)N1Cc1ccc(Cl)cc1Cl` (centres undefined) stands more than 50.9 µg/mL.
To `Cc1ccc(C)c(-c2csc(Nc3ncccn3)n2)c1` belongs 0.2 µg/mL (≈ 0.708 µM); to `COc1cccc(C(=O)c2c[nH]c(C(=O)NCc3cccnc3)c2)c1`, more than 50.3 µg/mL; to `CCOC(=O)c1ccc(N2C(=O)CC(C)(CC)CC2=O)cc1`, more than 45.5 µg/mL.
For `O=C(Cc1ccccc1F)Nc1ccccc1-c1ccccc1`, the solubility (kinetic) is 7.1 µg/mL (≈ 23.3 µM).
In turn, `O=C(COC(=O)c1ccc(Cl)c([N+](=O)[O-])c1)NC1CCCC1` yielded a kinetic solubility of 7.6 µg/mL (≈ 23.3 µM).
`CC(=O)C(Cc1ccccc1)NC(=O)COC(=O)c1cccc(C)c1[N+](=O)[O-]` (centres undefined) displayed a solubility (kinetic) of more than 57.7 µg/mL.
Compound `Cc1c(C)c(C)c(S(=O)(=O)NCCc2ccncc2)c(C)c1C` returned a kinetic solubility of 2 µg/mL (≈ 6.02 µM).
Turning to `O=C1COc2ccc(C(=O)COC(=O)CCOc3ccccc3)cc2N1`, the solubility (kinetic) worked out at 10.1 µg/mL (≈ 28.4 µM).
To `NC(=O)Cn1c(=O)n(-c2ccccc2)c(=O)c2oc3ccccc3c21` belongs 2.6 µg/mL (≈ 7.75 µM); to `Cc1ccc(F)cc1NC(=O)N1CCN(C2c3ccccc3-c3ccccc32)CC1`, 4.9 µg/mL (≈ 12.2 µM); to `CCCn1c(S(=O)(=O)O)nc2ccccc21`, more than 36 µg/mL.
Under `COc1ccc(NC(=O)c2cc(-c3ccccc3)on2)cc1` stands less than 0.3 µg/mL.
Under `Cc1ccc(C(=O)Nc2ccccc2Oc2ccccc2)o1` stands 12.5 µg/mL (≈ 42.6 µM); under `O=C(CCS(=O)(=O)Cc1ccccc1)NCCc1ccccc1`, 11.9 µg/mL (≈ 35.9 µM); under `COc1ccccc1N1CCN(CCCCN2C(=O)C3CCCCN3C2=O)CC1` (centres undefined), 52.4 µg/mL (≈ 131 µM).
With `CC1(C)C2CCC1(C)C(OC(=O)C[n+]1ccccc1)C2.[Cl-]` (centres undefined), the solubility (kinetic) was 39 µg/mL.
As to `O=C(NC1CCCCC1)c1ccc(-c2ccc(Cl)cc2)o1`, the kinetic solubility is less than 0.7 µg/mL.
To `CC(Sc1nccn1C)C(=O)Nc1ccccc1` (centres undefined) belongs more than 39.2 µg/mL; to `Nc1c(N=O)c(=O)[nH]c(=O)n1-c1ccccc1`, more than 34.8 µg/mL; to `COc1ccc(-c2ccnc(-c3ccncc3)n2)cc1`, more than 39.5 µg/mL.
Under `NS(=O)(=O)c1ccc(Nc2nc(-c3cccnc3)cs2)cc1` stands less than 0.2 µg/mL.
To `NCCCS(=O)(=O)O.O.[Na+]` belongs 2.9 µg/mL; to `CN(C)C(=O)c1ccc(Cl)cc1[N+](=O)[O-]`, more than 34.3 µg/mL; to `Cc1c(N)c(C)c([N+](=O)[O-])c(C)c1[N+](=O)[O-]`, 6.9 µg/mL (≈ 30.6 µM).
As for `CCOC(=O)C1CCN(C(=O)CN2C(=O)NC(C)(c3ccc4cc(OC)ccc4c3)C2=O)CC1` (centres undefined), the solubility (kinetic) was found to be 15.6 µg/mL (≈ 33.4 µM).
With `O=C1NC2(CCCCC2)C(=O)N1Cc1cccc(C(F)(F)F)c1`, the kinetic solubility was found to be 8.4 µg/mL (≈ 25.7 µM).
To `CC(OC(=O)c1ccc(Cl)cc1O)C(=O)NCCC1=CCCCC1` (centres undefined) belongs 32.9 µg/mL (≈ 93.5 µM); to `Cc1ccc(C(=O)Nc2c[nH]c(=O)[nH]c2=O)cc1`, 7.9 µg/mL (≈ 32.2 µM).
To `Cl.NCCOc1ccccc1OCCN` belongs more than 40.4 µg/mL.
To `CCn1nc(C)c(/C=N/NC(=O)Cn2cncn2)c1C` belongs more than 41.3 µg/mL; to `CC1CC(=O)Nc2ccccc2N1C(=O)COc1ccc2ccccc2c1` (centres undefined), 8.8 µg/mL (≈ 24.4 µM).
Turning to `CSCCC(=O)N1CCCC(N(C)CCc2ccccc2)C1` (centres undefined), the solubility (kinetic) stood at 41.7 µg/mL (≈ 130 µM).
To `Cc1ccc(CNC(=O)C(Cc2ccccc2)n2cccc2)cc1` (centres undefined) belongs 5.3 µg/mL (≈ 16.6 µM); to `CC(C[N+](C)(C)C)OC(=O)C1(c2ccccc2)CCCC1` (centres undefined), 34.7 µg/mL.
Under `O=C(Nc1cccc(Cl)c1)NC1CCS(=O)(=O)C1` (centres undefined) stands 36.4 µg/mL (≈ 126 µM).
The compound `CCOc1cccc(-c2nnc(SCC(=O)NC3CC3)n2C)c1` came in with a kinetic solubility of more than 49.9 µg/mL.
Under `Cc1ccnc(NC(=O)C(C)N2C(=O)c3ccccc3C2=O)c1` (centres undefined) stands 39.4 µg/mL (≈ 127 µM); under `COc1ccc(-c2noc(=O)n2Cc2ccccc2Cl)cc1`, 17.8 µg/mL (≈ 56.2 µM).
With `Cc1c(Cl)cccc1NC(=O)C1CCCN(S(C)(=O)=O)C1` (centres undefined), the kinetic solubility was 7.3 µg/mL (≈ 22.1 µM).
To `O=S(=O)(c1ccc(-c2ccccc2)cc1)N1CCCCC1` belongs less than 0.6 µg/mL; to `CCOc1ccc(Br)cc1CN(CC)CC.Cl`, more than 48.4 µg/mL.
Under `N#CCc1ccc(NC(=O)Cn2c(=O)oc3ccccc32)cc1` stands 6.7 µg/mL (≈ 21.8 µM); under `CN(C)CC(=O)N1CCc2ccccc2C1.O=C(O)C(=O)O`, more than 46.2 µg/mL.
Under `CSC1=NCCN1C(=O)Cc1ccc(-c2ccccc2)cc1` stands 4.1 µg/mL (≈ 13.2 µM); under `Cc1c(NC(=O)COC(=O)c2cccn2C)c(=O)n(-c2ccccc2)n1C`, more than 55.3 µg/mL; under `COc1ccc([N+](=O)[O-])cc1NC(=O)COC(=O)Cn1cnc2ccccc2c1=O`, more than 61.9 µg/mL.
Compound `CC1(C)CC(=O)N(c2ccc(Cl)cc2Cl)C(=O)C1` had a solubility (kinetic) of more than 42.9 µg/mL.
To `CCOc1ncccc1C(=O)OCC(=O)NCCCc1ccccc1` belongs more than 51.4 µg/mL; to `CCCC(=O)Nc1cc2c3c(c1)C(C)C(=O)N3CCC2` (centres undefined), 38 µg/mL (≈ 140 µM).
In turn, `Cc1cccc(C)c1NC(=O)CN(C1CCCCC1)S(C)(=O)=O` yielded a kinetic solubility of more than 50.8 µg/mL.
To `CCOc1ncccc1C(=O)Nc1ccccc1F` belongs 2.5 µg/mL (≈ 9.61 µM); to `O=C(O)c1cn(C2CCCCC2)c2ccccc2c1=O`, more than 40.7 µg/mL.
In the case of `Cc1cc(C(=O)COC(=O)c2ccco2)c(C)n1Cc1ccco1`, the kinetic solubility was found to be 2.5 µg/mL (≈ 7.64 µM).
To `CCOc1ccc(C(=O)NC(C(=O)N2CCC2)C(C)C)cc1` (centres undefined) belongs more than 45.7 µg/mL; to `O=c1c2ccccc2ncn1-c1ccc(Cl)cc1Cl`, 33.8 µg/mL (≈ 116 µM); to `CN(C)CCCNc1nc(N)c([N+](=O)[O-])c(NCc2ccccc2)n1`, 44.3 µg/mL (≈ 128 µM).
On to `CC(C)[C@H](NC(N)=O)C(=O)NCCc1ccc(Cl)cc1Cl`, for which the kinetic solubility turned out to be 48.2 µg/mL (≈ 145 µM).
To `Cc1nc2ccccn2c1-c1ccnc(SCc2ccc(Cl)cc2)n1` belongs less than 0.2 µg/mL.
Under `COc1ccc(/C=N/NC(=O)c2ccc[nH]2)cc1` stands more than 36.5 µg/mL; under `Cl.OCCNCCNCc1ccc(-c2ccccc2)cc1`, more than 51.5 µg/mL; under `CCOc1ccccc1NC(=O)N1CCCc2ccccc21`, less than 0.3 µg/mL.
To `CC(=O)N1CCN(c2nc3ccc(Br)cc3s2)CC1` belongs 7.9 µg/mL (≈ 23.2 µM).
In the case of `CCOC(=O)Nc1cc(NC(=O)OCC)c(C)nc1C`, the kinetic solubility was more than 42.2 µg/mL.
Under `O=C(NCc1cccc(Cl)c1)c1cc(=O)[nH]c2ccccc12` stands 1.8 µg/mL (≈ 5.76 µM).
Compound `COc1ccc(O)c(/C=N/c2nc3ccccc3n2C)c1` showed a kinetic solubility of 15 µg/mL (≈ 53.3 µM).
Under `Cn1c(=O)cc(N)n(-c2ccccc2)c1=O` stands more than 32.6 µg/mL; under `Cc1c(Cl)cccc1NC(=O)CCC(=O)c1cccs1`, 11.9 µg/mL (≈ 38.7 µM).
Under `CCOC(=O)N1CCN(Cc2cc(Cl)c3cccnc3c2O)CC1` stands more than 52.5 µg/mL; under `O=C(c1cnc2sccn2c1=O)N1CCN(c2ccccc2Cl)CC1`, 54.4 µg/mL (≈ 145 µM); under `Cc1ccc(SCc2ccc(C(=O)N3CCCC3)cc2)cc1`, 31 µg/mL (≈ 99.5 µM).
To `CCC1(c2ccccc2)C(=O)NCNC1=O` belongs more than 32.7 µg/mL.
`Cc1cc(Cl)c2ccc3ccccc3c2n1` returned a solubility (kinetic) of less than 0.5 µg/mL.
To `Cc1cc2c(NCCc3ccccc3)ncnc2s1.Cl` belongs 8.7 µg/mL; to `CCOC(=O)N1CCN(C(=O)COC(=O)c2cc(Cl)cc(Cl)c2)CC1`, 57.2 µg/mL (≈ 147 µM).
To `O=C(Nc1nnc(Cc2ccc(Cl)cc2)s1)C1CCCO1` (centres undefined) belongs more than 48.6 µg/mL; to `COc1nc(N)nc2nc[nH]c12`, more than 24.8 µg/mL.
Under `CC(CC(=O)O)CC(=O)Nc1nncs1` (centres undefined) stands more than 34.4 µg/mL.
`COc1ccc(-c2csc3nc[nH]c(=O)c23)cc1OC` had a kinetic solubility of 39.4 µg/mL (≈ 137 µM).
Under `COC(=O)c1c(NC(=O)CCCC(=O)O)sc2c1CCCCC2` stands more than 50.9 µg/mL; under `CC(C)(C)c1ccc(-c2ncccc2O)cc1.Cl`, 10.6 µg/mL; under `CN(c1ccccc1)c1nc(N)c([N+](=O)[O-])c(N2CCCC2)n1`, 20.9 µg/mL (≈ 66.5 µM).
Under `CC(=O)N[C@@H](CC(=O)O)C(=O)O` stands more than 26.3 µg/mL.
Under `Cc1ccc(N2CC(=O)Nc3c(sc4nc(C)cc(C)c34)C2=O)cc1` stands 0.6 µg/mL (≈ 1.71 µM); under `Cn1c(C(=O)O)cc2cc(Oc3ccccc3)ccc21`, 36 µg/mL (≈ 135 µM); under `Cc1nn(C)cc1S(=O)(=O)N1CCCCC1C` (centres undefined), more than 38.6 µg/mL.
For `Cc1ccn2c(C(=O)NN=C3CCCCCCC3)c(C)nc2c1`, the solubility (kinetic) was more than 46.9 µg/mL.
The compound `O=[N+]([O-])c1ccc(CN2C=NS(=O)(=O)c3ccccc32)cc1` yielded a solubility (kinetic) of more than 47.6 µg/mL.
Under `O=C(NC1CCSc2ccccc21)c1ccccc1Cl` (centres undefined) stands 9.3 µg/mL (≈ 30.6 µM).
To `Clc1ccc(Cl)c(OCCCCN2CCCCC2)c1` belongs 29.5 µg/mL (≈ 97.6 µM); to `O=C(Nc1nc(-c2ccccc2)cs1)c1ccccc1F`, 0.4 µg/mL (≈ 1.34 µM); to `COc1ccc(CNC(=O)c2ccc[nH]2)cc1Cl`, more than 39.7 µg/mL.
Compound `O=C(CSc1cccc[n+]1[O-])c1ccc(Cl)s1` registered a kinetic solubility of 38.3 µg/mL (≈ 134 µM).
To `O=C(Nc1cccc([N+](=O)[O-])c1)Nc1ccc2c(c1)OCCO2` belongs 0.4 µg/mL (≈ 1.27 µM); to `O=C1CSC(c2ccccc2)N1c1cccnc1` (centres undefined), more than 38.4 µg/mL.
Consider `CN(CC(=O)Nc1ccc(F)cc1)CC(=O)NC1CCCCC1`, for which the kinetic solubility is more than 48.2 µg/mL.
To `CSC1=C(C#N)C(c2ccncc2)C(C(=O)Nc2ccccc2)=C(C)N1` (centres undefined) belongs 52.5 µg/mL (≈ 145 µM); to `CCCCC1(C)NC(=O)N(CC(=O)N2CCc3ccccc32)C1=O` (centres undefined), more than 49.4 µg/mL.
To `CCCCOC(=O)c1ccc(NC(=O)C(=O)NCCN(CC)CC)cc1` belongs 44.3 µg/mL (≈ 122 µM); to `CCCn1c(N)c(C(=O)CN2CCc3ccccc3C2)c(=O)n(C)c1=O`, more than 53.5 µg/mL.
`CC(NC(=O)CN(C)Cc1cccc(F)c1)c1ccccc1` (centres undefined) came in with a solubility (kinetic) of more than 45.1 µg/mL.
